The source of these data is PubChem BioAssay (NCI).

Molecules are shown by their SMILES.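 Assay format: 96-well plates, 48-hour exposure. GI50 is the concentration that inhibits growth by half. TGI denotes the concentration required for complete inhibition of growth.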

Test systems include HCT-116 colon; M14 melanoma; MALME-3M melanoma; OVCAR-3 ovarian; OVCAR-5 ovarian; SK-MEL-2 melanoma; SN12C renal; SW-620 colon; UACC-62 melanoma; DU-145 prostate.
Test in all cases: NCI tumour cell line growth inhibition, 48 h

Consider `COc1ccc(/C=N/NC(=O)NCCNCCO)cc1`, for which the TGI in the test with HCT-116 colon, in the test with M14 melanoma, in the test with MALME-3M melanoma, with OVCAR-3 ovarian, with OVCAR-5 ovarian and in the test on SK-MEL-2 melanoma was above 100 µM throughout. The TGI in the test on SN12C renal, in the test on SW-620 colon and in the test with UACC-62 melanoma was above 100 µM throughout.

On to `Cc1c2cc[n+](C)cc2c(C)c2c1[nH]c1ccc(OC(C)(C)C)cc12`, for which the TGI in the test with HCT-116 colon, with M14 melanoma, with MALME-3M melanoma, in the test on OVCAR-5 ovarian, with SK-MEL-2 melanoma and with SN12C renal was above 100 µM in each case. In addition, the TGI with SW-620 colon and with UACC-62 melanoma was above 100 µM throughout.

Take `O=C(C#Cc1ccccc1)Nc1ccccc1CC(c1c[nH]c2ccccc12)c1c[nH]c2ccccc12`: the TGI in the test with M14 melanoma is 39.6 µM; in the test on MALME-3M melanoma, above 100 µM; in the test on OVCAR-3 ovarian, 29.2 µM; in the test with SK-MEL-2 melanoma, 51.9 µM; in the test with SN12C renal it was 30 µM; in the test with SW-620 colon it was 27.4 µM. This compound also gave a TGI with UACC-62 melanoma of 22 µM.

For the compound `Nc1nc2c(nnn2C2C=C(CO)C(O)C2O)c(=O)[nH]1` (stereo not drawn), the TGI in the test with HCT-116 colon, with M14 melanoma, in the test on MALME-3M melanoma, in the test with OVCAR-3 ovarian, in the test on OVCAR-5 ovarian and in the test with SK-MEL-2 melanoma was above 100 µM throughout. The TGI with SN12C renal, in the test on SW-620 colon and in the test on UACC-62 melanoma was above 100 µM in each case.

`C#CCN(Cc1ccc2nc(-c3ccccc3)c(Cl)nc2c1)c1ccc(Cl)c(Cl)c1`: the TGI in the test with HCT-116 colon, with M14 melanoma, in the test with MALME-3M melanoma, in the test on OVCAR-3 ovarian, with OVCAR-5 ovarian and with SK-MEL-2 melanoma was above 100 µM throughout. The TGI in the test with SN12C renal, with SW-620 colon and in the test with UACC-62 melanoma was above 100 µM each time.

For the compound `COc1ccc(C2=Nn3c(nc4sc5c(c4c3=O)CCCC5)SC2)cc1`, the TGI in the test with DU-145 prostate, in the test with HCT-116 colon, with MALME-3M melanoma, in the test on OVCAR-3 ovarian, with OVCAR-5 ovarian and in the test with SN12C renal was above 100 µM throughout. Further, the TGI in the test on SW-620 colon and in the test on UACC-62 melanoma was above 100 µM each time.

As to `CCN1CC2(CO)CCC(OC)C34C5CC6C(OC)CC(O)(C5C6OC)C(O)(C(OC)C23)C14` (stereo not drawn), the TGI in the test on HCT-116 colon is above 375 µM; in the test on MALME-3M melanoma, above 375 µM; with OVCAR-3 ovarian, above 174 µM; in the test on OVCAR-5 ovarian it was above 209 µM; in the test on SK-MEL-2 melanoma, above 63.9 µM; with SN12C renal it was above 375 µM. The TGI in the test on SW-620 colon and in the test with UACC-62 melanoma was above 375 µM in each case.

Consider `CCc1cc2c(cc1O)CC[C@@H]1[C@@H]2CC[C@]2(C)[C@@H](O)CC[C@@H]12`, for which the GI50 was 11.1 µM in the test with DU-145 prostate, 3.52 µM with HCT-116 colon, 2.94 µM in the test with OVCAR-3 ovarian and 7.3 µM in the test with SN12C renal. The TGI is 24.5 µM in the test with DU-145 prostate; 13.4 µM in the test with HCT-116 colon; 19.8 µM in the test with M14 melanoma; 12.5 µM in the test on MALME-3M melanoma; 11.5 µM with OVCAR-3 ovarian; 39.4 µM in the test on OVCAR-5 ovarian. The TGI with SK-MEL-2 melanoma was 25 µM; with SN12C renal it was 20 µM; in the test on SW-620 colon it was 16.6 µM.

Regarding `Cn1cnc([N+](=O)[O-])c1Sc1nnc(-c2ccc(Cl)cc2)n1C`, the TGI in the test on HCT-116 colon came to 25.8 µM; in the test on M14 melanoma it was 26.6 µM; with MALME-3M melanoma, 23 µM; in the test with OVCAR-3 ovarian, 26.9 µM; with OVCAR-5 ovarian, 34.8 µM; in the test with SK-MEL-2 melanoma, 34.8 µM. Besides, the TGI in the test with SN12C renal is 28.4 µM; in the test on SW-620 colon, 23.5 µM; with UACC-62 melanoma, 29 µM.

On to `CC(=O)O[C@H]1C(=O)[C@@]2(C)C(C(OC(=O)c3ccccc3)[C@]3(O)CC(OC(=O)C(O)C(NC(=O)c4cccc(Cl)c4)c4ccccc4)C(C)=C1C3(C)C)[C@]1(OC(C)=O)CO[C@@H]1C[C@@H]2O` (stereo partly drawn), for which the TGI is 5.58 µM in the test on DU-145 prostate; 5.12 µM in the test on HCT-116 colon; above 10 µM in the test with M14 melanoma; above 10 µM with MALME-3M melanoma; above 10 µM in the test on OVCAR-3 ovarian; above 10 µM in the test on OVCAR-5 ovarian. For the same compound, the TGI in the test on SK-MEL-2 melanoma, with SN12C renal and in the test on SW-620 colon was above 10 µM each time.

For the compound `CCN(CC)CCNC(=O)C1COc2ccc(-c3cc(=O)c4ccccc4o3)cc2O1` (stereo not drawn), the TGI with HCT-116 colon is 32.7 µM; in the test on MALME-3M melanoma it was 30.3 µM; with OVCAR-3 ovarian, 41.4 µM; in the test on OVCAR-5 ovarian, 56.7 µM; with SK-MEL-2 melanoma, 38 µM; with SN12C renal it was 55.1 µM. In addition, the TGI is 45.9 µM in the test on SW-620 colon and 31.9 µM in the test with UACC-62 melanoma.

As for `CCOC1=C2N=C(C(CC)c3ccc(F)cc3)N=C2C(=O)c2ccccc21` (stereo not drawn), the TGI was above 61.3 µM in the test on HCT-116 colon; above 68.3 µM in the test on M14 melanoma; 61.8 µM in the test on MALME-3M melanoma; above 91.1 µM in the test with OVCAR-3 ovarian; above 100 µM in the test on OVCAR-5 ovarian; 39.5 µM in the test on SK-MEL-2 melanoma. The TGI is above 66.7 µM in the test on SN12C renal, above 100 µM in the test on SW-620 colon and 29.7 µM in the test on UACC-62 melanoma.

With `C#CCN1C(=O)CN2C(Cl)(Cl)C2(c2ccccc2)c2cc(Cl)ccc21` (stereo not drawn), the TGI with HCT-116 colon, with M14 melanoma, in the test on MALME-3M melanoma, in the test on OVCAR-3 ovarian, with OVCAR-5 ovarian and in the test on SK-MEL-2 melanoma was above 100 µM in each case. In addition, the TGI in the test with SN12C renal and with SW-620 colon was above 100 µM throughout.

As for `Nc1ccc2ncc(NCc3ccc(F)cc3)nc2c1`, the TGI in the test with HCT-116 colon, with M14 melanoma, in the test with MALME-3M melanoma, with OVCAR-3 ovarian, with OVCAR-5 ovarian and in the test on SK-MEL-2 melanoma was above 100 µM each time. For the same compound, the TGI in the test on SN12C renal, with SW-620 colon and in the test with UACC-62 melanoma was above 100 µM each time.
